Experimental data reported in ChEMBL document CHEMBL3232945 (Eur J Med Chem, 2014).

Legend:
Rattus norvegicus [1] = assay: Toxicity in […] normotensive Wistar rat assessed as mean arterial pressure at 40 mg/kg, ip after 60 mins (reference value: 95.07 +/- 1.973 mmHg); type: organism-based, Artery; set-up: dose 40 mg/kg, route intraperitoneal; details: in vivo, 1 h
Rattus norvegicus [2] = assay: Antihypertensive activity in Wistar rat assessed as mean arterial pressure at 40 mg/kg, ip measured immediately at 0 min (reference value: 194.08 +/- 1.962 mmHg); type: functional, Artery; details: route intraperitoneal
Rattus norvegicus [3] = assay: Antihypertensive activity in Wistar rat assessed as mean arterial pressure at 40 mg/kg, ip after 15 mins (reference value: 195.68 +/- 1.623 mmHg); type: functional, Artery; details: route intraperitoneal
Rattus norvegicus [4] = assay: Antihypertensive activity in Wistar rat assessed as mean arterial pressure at 40 mg/kg, ip after 30 mins (reference value: 194.72 +/- 1.002 mmHg); type: functional, Artery; details: route intraperitoneal
Rattus norvegicus [5] = assay: Antihypertensive activity in Wistar rat assessed as mean arterial pressure at 40 mg/kg, ip after 45 mins (reference value: 193.96 +/- 0.865 mmHg); type: functional, Artery; details: route intraperitoneal
Rattus norvegicus [6] = assay: Antihypertensive activity in Wistar rat assessed as mean arterial pressure at 40 mg/kg, ip after 60 mins (reference value: 195.11 +/- 0.531 mmHg); type: functional, Artery; details: route intraperitoneal
Rattus norvegicus [7] = assay: Toxicity in anesthetized-normotensive Wistar rat assessed as heart rate at 40 mg/kg, ip measured immediately at 0 min (reference value: 316.62 +/- 9.643 bpm); type: organism-based; set-up: dose 40 mg/kg, route intraperitoneal; details: in vivo, 0 h
Rattus norvegicus [8] = assay: Toxicity in anesthetized-normotensive Wistar rat assessed as heart rate at 40 mg/kg, ip after 15 mins (reference value: 313.93 +/- 9.912 bpm); type: organism-based; set-up: dose 40 mg/kg, route intraperitoneal; details: in vivo, 0.25 h
Rattus norvegicus [9] = assay: Toxicity in anesthetized-normotensive Wistar rat assessed as heart rate at 40 mg/kg, ip after 30 mins (reference value: 317.68 +/- 7.631 bpm); type: organism-based; set-up: dose 40 mg/kg, route intraperitoneal; details: in vivo, 0.5 h
Rattus norvegicus [10] = assay: Toxicity in anesthetized-normotensive Wistar rat assessed as heart rate at 40 mg/kg, ip after 45 mins (reference value: 316.82 +/- 8.452 bpm); type: organism-based; set-up: dose 40 mg/kg, route intraperitoneal; details: in vivo, 0.75 h
Rattus norvegicus [11] = assay: Toxicity in anesthetized-normotensive Wistar rat assessed as heart rate at 40 mg/kg, ip after 60 mins (reference value: 314.96 +/- 9.442 bpm); type: organism-based; set-up: dose 40 mg/kg, route intraperitoneal; details: in vivo, 1 h
Rattus norvegicus [12] = assay: Antiarrhythmic activity in barium chloride-induced Wistar rat assessed as increase in appearance time of arrhythmia at 40 mg/kg, ip administered 60 mins before barium chloride challenge (reference value: 129.4 +/- 4.373 sec); type: functional, Heart; details: route intraperitoneal
Rattus norvegicus [13] = assay: Antiarrhythmic activity in barium chloride-induced Wistar rat assessed as increase in mortality time at 40 mg/kg, ip administered 60 mins before barium chloride challenge (reference value: 682.8 +/- 9.656 secs); type: functional, Heart; details: route intraperitoneal
Rattus norvegicus [14] = assay: Toxicity in anaesthetized-Wistar rat assessed as P-Q ECG interval at 40 mg/kg, ip measured immediately at 0 min (reference value: 52.4 +/- 0.927 ms); type: organism-based; set-up: dose 40 mg/kg, route intraperitoneal; details: in vivo, 0 h
Rattus norvegicus [15] = assay: Toxicity in anaesthetized-Wistar rat assessed as QRS ECG interval at 40 mg/kg, ip measured immediately at 0 min (reference value: 19.6 +/- 1.142 ms); type: organism-based; set-up: dose 40 mg/kg, route intraperitoneal; details: in vivo, 0 h
Rattus norvegicus [16] = assay: Toxicity in anaesthetized-Wistar rat assessed as Q-T ECG interval at 40 mg/kg, ip measured immediately at 0 min (reference value: 78.8 +/- 1.030 ms); type: organism-based; set-up: dose 40 mg/kg, route intraperitoneal; details: in vivo, 0 h
Rattus norvegicus [17] = assay: Toxicity in anaesthetized-Wistar rat assessed as P-Q ECG interval at 40 mg/kg, ip after 15 mins (reference value: 52.2 +/- 1.158 ms); type: organism-based; set-up: dose 40 mg/kg, route intraperitoneal; details: in vivo, 0.25 h
Rattus norvegicus [18] = assay: Toxicity in anaesthetized-Wistar rat assessed as QRS ECG interval at 40 mg/kg, ip after 15 mins (reference value: 18.9 +/- 1.563 ms); type: organism-based; set-up: dose 40 mg/kg, route intraperitoneal; details: in vivo, 0.25 h
Rattus norvegicus [19] = assay: Toxicity in anaesthetized-Wistar rat assessed as Q-T ECG interval at 40 mg/kg, ip after 15 mins (reference value: 79.4 +/- 1.270 ms); type: organism-based; set-up: dose 40 mg/kg, route intraperitoneal; details: in vivo, 0.25 h
Rattus norvegicus [20] = assay: Toxicity in anaesthetized-Wistar rat assessed as P-Q ECG interval at 40 mg/kg, ip after 30 mins (reference value: […] +/- 0.927 ms); type: organism-based; set-up: dose 40 mg/kg, route intraperitoneal; details: in vivo, 0.5 h
Rattus norvegicus [21] = assay: Toxicity in anaesthetized-Wistar rat assessed as QRS ECG interval at 40 mg/kg, ip after 30 mins (reference value: 19.9 +/- 1.393 ms); type: organism-based; set-up: dose 40 mg/kg, route intraperitoneal; details: in vivo, 0.5 h
Rattus norvegicus [22] = assay: Toxicity in anaesthetized-Wistar rat assessed as Q-T ECG interval at 40 mg/kg, ip after 30 mins (reference value: 78.3 +/- 0.860 ms); type: organism-based; set-up: dose 40 mg/kg, route intraperitoneal; details: in vivo, 0.5 h
Rattus norvegicus [23] = assay: Toxicity in anaesthetized-Wistar rat assessed as P-Q ECG interval at 40 mg/kg, ip after 45 mins (reference value: 52.5 +/- 0.780 ms); type: organism-based; set-up: dose 40 mg/kg, route intraperitoneal; details: in vivo, 0.75 h
Rattus norvegicus [24] = assay: Toxicity in anaesthetized-Wistar rat assessed as QRS ECG interval at 40 mg/kg, ip after 45 mins (reference value: 20.2 +/- 1.348 ms); type: organism-based; set-up: dose 40 mg/kg, route intraperitoneal; details: in vivo, 0.75 h
Rattus norvegicus [25] = assay: Toxicity in anaesthetized-Wistar rat assessed as Q-T ECG interval at 40 mg/kg, ip after 45 mins (reference value: 78.8 +/- 0.927 ms); type: organism-based; set-up: dose 40 mg/kg, route intraperitoneal; details: in vivo, 0.75 h
Rattus norvegicus [26] = assay: Toxicity in anaesthetized-Wistar rat assessed as P-Q ECG interval at 40 mg/kg, ip after 60 mins (reference value: […] +/- 0.924 ms); type: organism-based; set-up: dose 40 mg/kg, route intraperitoneal; details: in vivo, 1 h
Rattus norvegicus [27] = assay: Toxicity in anaesthetized-Wistar rat assessed as QRS ECG interval at 40 mg/kg, ip after 60 mins (reference value: 19.3 +/- 0.873 ms); type: organism-based; set-up: dose 40 mg/kg, route intraperitoneal; details: in vivo, 1 h
Rattus norvegicus [28] = assay: Toxicity in anaesthetized-Wistar rat assessed as Q-T ECG interval at 40 mg/kg, ip after 60 mins (reference value: 79.7 +/- 0.965 ms); type: organism-based; set-up: dose 40 mg/kg, route intraperitoneal; details: in vivo, 1 h
Rattus norvegicus [29] = assay: Toxicity in […] normotensive Wistar rat assessed as mean arterial pressure at 40 mg/kg, ip measured immediately at 0 min (reference value: 94.21 +/- 2.065 mmHg); type: organism-based, Artery; set-up: dose 40 mg/kg, route intraperitoneal; details: in vivo, 0 h
Rattus norvegicus [30] = assay: Toxicity in […] normotensive Wistar rat assessed as mean arterial pressure at 40 mg/kg, ip after 15 mins (reference value: 93.81 +/- 1.543 mmHg); type: organism-based, Artery; set-up: dose 40 mg/kg, route intraperitoneal; details: in vivo, 0.25 h
Rattus norvegicus [31] = assay: Toxicity in […] normotensive Wistar rat assessed as mean arterial pressure at 40 mg/kg, ip after 30 mins (reference value: 94.68 +/- 1.213 mmHg); type: organism-based, Artery; set-up: dose 40 mg/kg, route intraperitoneal; details: in vivo, 0.5 h
Rattus norvegicus [32] = assay: Toxicity in […] normotensive Wistar rat assessed as mean arterial pressure at 40 mg/kg, ip after 45 mins (reference value: 94.83 +/- 0.943 mmHg); type: organism-based, Artery; set-up: dose 40 mg/kg, route intraperitoneal; details: in vivo, 0.75 h

Structure (SMILES)	Activity (Rattus norvegicus [1]) [mmHg]	Activity (Rattus norvegicus [2]) [mmHg]	Activity (Rattus norvegicus [3]) [mmHg]	Activity (Rattus norvegicus [4]) [mmHg]	Activity (Rattus norvegicus [5]) [mmHg]	Activity (Rattus norvegicus [6]) [mmHg]	Activity (Rattus norvegicus [7]) [bpm]	Activity (Rattus norvegicus [8]) [bpm]	Activity (Rattus norvegicus [9]) [bpm]	Activity (Rattus norvegicus [10]) [bpm]	Activity (Rattus norvegicus [11]) [bpm]	Time (Rattus norvegicus [12]) [s]	Time (Rattus norvegicus [13]) [s]	Activity (Rattus norvegicus [14]) [ms]	Activity (Rattus norvegicus [15]) [min]	Activity (Rattus norvegicus [16]) [min]	Activity (Rattus norvegicus [17]) [min]	Activity (Rattus norvegicus [18]) [min]	Activity (Rattus norvegicus [19]) [min]	Activity (Rattus norvegicus [20]) [min]	further results
O=C1/C(=C\c2ccccc2)S/C(=N\c2ccccc2)N1CC(O)CN1CCNCC1 (stereo unspecified)	70.27	196.63	176.65	153.16	128.32	159.08	302.12	292.46	259.31	269.73	298.12	379.7	1380.5	54.3	20.8	80.2	54.7	21.6	80.6	56.4	Activity (Rattus norvegicus [21]): 23.8 ms; Activity (Rattus norvegicus [22]): 81.8 min; Activity (Rattus norvegicus [23]): 56.9 min; Activity (Rattus norvegicus [24]): 23.7 min; Activity (Rattus norvegicus [25]): 82.4 min; Activity (Rattus norvegicus [26]): 55.1 min; Activity (Rattus norvegicus [27]): 22.4 min; Activity (Rattus norvegicus [28]): 82.1 ms; Activity (Rattus norvegicus [29]): 92.33 mmHg; Activity (Rattus norvegicus [30]): 78.76 mmHg; Activity (Rattus norvegicus [31]): 62.26 mmHg; Activity (Rattus norvegicus [32]): 62.53 mmHg
CC(C)N1CCN(CC(O)CN2C(=O)/C(=C\c3ccccc3)S/C2=N\c2ccccc2)CC1 (stereo unspecified)	76.27	193.37	185.53	161.56	146.51	160.84	310.34	298.46	272.41	253.26	302.92	354.8	1213.7	53.5	23.3	76	53.9	23.7	76.2	54.1	Activity (Rattus norvegicus [21]): 24.1 ms; Activity (Rattus norvegicus [22]): 76.6 min; Activity (Rattus norvegicus [23]): 55.2 min; Activity (Rattus norvegicus [24]): 24.6 min; Activity (Rattus norvegicus [25]): 77.1 min; Activity (Rattus norvegicus [26]): 55.6 min; Activity (Rattus norvegicus [27]): 24.8 min; Activity (Rattus norvegicus [28]): 77.4 ms; Activity (Rattus norvegicus [29]): 92.09 mmHg; Activity (Rattus norvegicus [30]): 79.32 mmHg; Activity (Rattus norvegicus [31]): 62.08 mmHg; Activity (Rattus norvegicus [32]): 65.43 mmHg
O=C1/C(=C\c2ccccc2)S/C(=N\c2ccccc2)N1CC(O)CN1CCN(c2ccccc2)CC1 (stereo unspecified)	83.55	194.87	180.43	146.27	156.09	182.32	318.34	309.46	295.41	287.25	301.92	285.4	964.4	52.4	21.8	73.5	52.7	22.2	73.9	53.3	Activity (Rattus norvegicus [21]): 23.5 ms; Activity (Rattus norvegicus [22]): 74.2 min; Activity (Rattus norvegicus [23]): 53.9 min; Activity (Rattus norvegicus [24]): 24.1 min; Activity (Rattus norvegicus [25]): 74.9 min; Activity (Rattus norvegicus [26]): 54.2 min; Activity (Rattus norvegicus [27]): 24.7 min; Activity (Rattus norvegicus [28]): 75 ms; Activity (Rattus norvegicus [29]): 94.56 mmHg; Activity (Rattus norvegicus [30]): 86.43 mmHg; Activity (Rattus norvegicus [31]): 76.84 mmHg; Activity (Rattus norvegicus [32]): 79.26 mmHg
